Laboratory results as given in ChEMBL document CHEMBL1926605, “Synthesis, structure-activity relationships, and mechanism of action of anti-HIV-1 lamellarin α 20-sulfate analogues” (Bioorg Med Chem, 2011).
Calls of active or inactive are those of the source. No cut-off for these calls is given here.

Tests used:
[1] = test system: Human immunodeficiency virus 1; assay: Antiviral activity against LacZ-containing HIV1 in COS7 cells expressing HXB2 Env, R8.91, and pTY-EFnLacZ assessed as reduction of viral vector infection into human HeLa cells expressing CD4 after 2 days using 5-bromo-4-chloro-3-indolyl-beta-D-galactopyranoside staining; format: functional, organism-based; details: Human immunodeficiency virus 1, HeLa, 48 h
[2] = test system: HeLa; assay: Cellular uptake in human HeLa cells expressing CD4 at 100 uM after 24 hrs by confocal laser scanning microscopy analysis in presence of methanol; format: ADME, cell-based
[3] = test system: HeLa; assay: Cellular uptake in human HeLa cells expressing CD4 at 100 uM after 24 hrs by confocal laser scanning microscopy analysis; format: ADME, cell-based
[4] = test system: Human immunodeficiency virus 1; assay: Antiviral activity against HIV1 in COS7 cells expressing HXB2 Env, R8.91, and pTY-EFnLacZ assessed as reduction of viral vector infection into human HeLa cells expressing CD4 at 100 uM after 2 days using 5-bromo-4-chloro-3-indolyl-beta-D-galactopyranoside staining; format: functional, organism-based
[5] = test system: HeLa; assay: Cytotoxicity against human HeLa cells expressing CD4 after 24 hrs by WST-1 assay; format: cell-based
[6] = test system: Human immunodeficiency virus 1; assay: Antiviral activity against HIV1 infected in MAGIC5 cells co-cultured with Cos7 cells assessed as inhibition of viral envelope mediated cell-cell fusion at 100 uM after 24 hrs by beta galactosidase assay; format: functional, organism-based; details: COS-7
[7] = test system: HeLa; assay: Cytotoxicity against human HeLa cells by MTT assay; format: cell-based

| Compound | IC50 [1] [µM] | Drug uptake [2] | Drug uptake [3] | Activity [4] | IC50 [5] [µM] | inhibition [6] | Activity [7] [µM] |
| --- | --- | --- | --- | --- | --- | --- | --- |
| COc1ccc(-c2c3n(c4c(=O)oc5cc(OS(=O)(=O)[O-])c(OC)cc5c24)CCc2cc(OC)c(OC)cc2-3)cc1O.[Na+] | 15.3 | Active | Not Active | Active | > 100 | Active | – |
| COc1ccc(-c2c3c4cc(OC)c(OS(=O)(=O)[O-])cc4oc(=O)c3n3ccc4cc(OC)c(OC)cc4c23)cc1O.[Na+] | 13 | Active | Not Active | Active | > 100 | Active | 274 |
| COc1ccc(-c2c3c4cc(OC)c(O)cc4oc(=O)c3n3ccc4cc(OC)c(OC)cc4c23)cc1O | > 100 | Active | Active | – | – | – | – |
| COc1cc2ccn3c(c(-c4ccc(OC)c(OS(=O)(=O)[O-])c4)c4c5cc(OC)c(OS(=O)(=O)[O-])cc5oc(=O)c43)c2cc1OC.[Na+].[Na+] | 15.1 | Active | Not Active | Active | > 100 | Active | – |
| COc1ccc(-c2c3c4cc(OC)c(OS(=O)(=O)[O-])cc4oc(=O)c3n3ccc4cc(OS(=O)(=O)[O-])c(OC)cc4c23)cc1OS(=O)(=O)[O-].[Na+].[Na+].[Na+] | 20.7 | Active | Not Active | Active | > 100 | Active | – |
| COc1cc2c(cc1O)oc(=O)c1c2c(-c2ccc(OC)c(OS(=O)(=O)[O-])c2)c2c3cc(OC)c(OC)cc3ccn21.[Na+] | 14.4 | Active | Not Active | Active | > 100 | Active | – |
| COc1ccc(-c2cn(CCc3ccc(OC)c(OC)c3)c3c(=O)oc4cc(OS(=O)(=O)O)c(OC)cc4c23)cc1O | > 100 | – | – | – | – | inactive | – |
